MIC data for three compounds are collected here from patent US4742053A, “3-Isoquinoliniomethyl cephalosporin derivatives” (Banyu Pharmaceutical Co., Ltd., priority 1984, dated 1988).

≈ marks a conversion by molar mass, not a printed value. Like-named read-outs stand apart in the source and are kept apart here.

Test in all cases: MIC by agar plate dilution method
Holding throughout (format): cell-based

One test relates to E. coli CSH2. The note with it: Escherichia coli, 10^6 CFU/ml, read-out: Minimum Inhibitory Concentration. As for the experimental part: (§1) The minimum inhibitory concentrations (MIC: μg/ml) of the compounds of the present invention against various microorganisms were measured by an agar plate dilution method (inoculum size: 10^6 CFU/ml) by using Sensitivity Disk Agar (Nissui) in comparison with Cefotaxime and Ceftazidime as comparative compounds.
(§2) Minimum Inhibitory Concentration (μg/ml; 10^6 CFU/ml)

Another test relates to P. maltophilia IID 1275. Particulars: Stenotrophomonas maltophilia, IID1275; P. maltophilia IID 1275; 10^6 CFU/ml; read-out: Minimum Inhibitory Concentration. As for the experimental part:
as §1, §2

A further test deals with S. aureus JS-1. The note with it: Staphylococcus aureus, JS1; S. aureus JS-1; 10^6 CFU/ml; read-out: Minimum Inhibitory Concentration. As for the experimental part: as §1, §2
The next test has as its system C. freundii No. 7. Particulars: Citrobacter freundii; C. freundii No. 7; 10^6 CFU/ml; read-out: Minimum Inhibitory Concentration. As for the experimental part: as §1, §2
The test system of the next test is E. coli W3630/Rms213. The note with it: Escherichia coli, W3630/RMS213, read-out: Minimum Inhibitory Concentration, E. coli W3630/Rms213; 10^6 CFU/ml. As for the experimental part:
as §1, §2

The test system of another test is P. aeruginosa AK109. Particulars: Pseudomonas aeruginosa, AK109, P. aeruginosa AK109; 10^6 CFU/ml; read-out: Minimum Inhibitory Concentration. As for the experimental part:
as §1, §2

In a further test the test system is P. aeruginosa AKR17. Particulars: Pseudomonas aeruginosa, AKR17, P. aeruginosa AKR17; 10^6 CFU/ml; read-out: Minimum Inhibitory Concentration. As for the experimental part:
as §1, §2

In another test the test system is E. coli C/Rms149. Particulars: Escherichia coli, read-out: Minimum Inhibitory Concentration, E. coli C/Rms149; 10^6 CFU/ml. As for the experimental part:
as §1, §2

A further test concerns S. aureus NIHJJC-1. The note with it: Staphylococcus aureus. As for the experimental part:
as §1, §2

Another test has as its system K. pneumoniae No. 42. The note with it: Klebsiella pneumoniae; K. pneumoniae No. 42; 10^6 CFU/ml; read-out: Minimum Inhibitory Concentration. As for the experimental part: as §1, §2
The test system of another test is E. coli NIHJJC-2. Particulars: Escherichia coli, NIHJJC2, E. coli NIHJJC-2; 10^6 CFU/ml; read-out: Minimum Inhibitory Concentration. As for the experimental part: as §1, §2
In a further test the test system is P. vulgaris OB1043. Particulars: Proteus vulgaris, OB1043, P. vulgaris OB1043; 10^6 CFU/ml; read-out: Minimum Inhibitory Concentration. As for the experimental part: as §1, §2
A further test deals with A. calcoaceticus No. 14. The note with it: Acinetobacter calcoaceticus, NO.14, A. calcoaceticus No. 14; 10^6 CFU/ml; read-out: Minimum Inhibitory Concentration. As for the experimental part:
as §1, §2

The next test has as its system P. mirabilis JY10. The note with it: Proteus mirabilis; P. mirabilis JY10; 10^6 CFU/ml; read-out: Minimum Inhibitory Concentration. As for the experimental part:
as §1, §2

Another test has as its system P. vulgaris No. 33. The note with it: Proteus vulgaris. As for the experimental part:
as §1, §2

Another test concerns S. marcescens No. 16-2. Particulars: Serratia marcescens. As for the experimental part: as §1, §2
The subject of another test is P. cepacia 23. The note with it: Burkholderia cepacia; P. cepacia 23; 10^6 CFU/ml; read-out: Minimum Inhibitory Concentration. As for the experimental part:
as §1, §2

The next test relates to E. coli CSH. The note with it: Escherichia coli, 10^6 CFU/ml, read-out: Minimum Inhibitory Concentration. As for the experimental part: as §1, §2
For a further test, the system named is E. coli ML1410/Rte16. The note with it: Escherichia coli, ML1410/RTE16, read-out: Minimum Inhibitory Concentration, E. coli ML1410/Rte16; 10^6 CFU/ml. As for the experimental part:
as §1, §2

The test system of a further test is E. coli W3630/Rms212. Particulars: Escherichia coli, W3630/RMS212, read-out: Minimum Inhibitory Concentration, E. coli W3630/Rms212; 10^6 CFU/ml. As for the experimental part:
as §1, §2

Another test deals with E. cloaceae Nek 39. Particulars: E. cloaceae Nek 39; 10^6 CFU/ml; read-out: Minimum Inhibitory Concentration. As for the experimental part: as §1, §2
[1] abbreviates: NIHJJC1, S. aureus NIHJJC-1, 10^6 CFU/ml, read-out: Minimum Inhibitory Concentration.
Where [2] appears, read: P. vulgaris No. 33, 10^6 CFU/ml, read-out: Minimum Inhibitory Concentration.
Setting [3] is: NO.162, S. marcescens No. 16-2, 10^6 CFU/ml, read-out: Minimum Inhibitory Concentration.

For the compound `CC(C)(ON=C(C(=O)NC1C(=O)N2C(C(=O)[O-])=C(C[N+]3(C)CCc4cc(O)c(O)cc4C3)CSC12)c1csc(N)n1)C(=O)O` (stereo not drawn) [Ex. 15, 7-[(Z)-2-(2-aminothiazol-4-yl)-2-(1-carboxy-1-methylethoxyimino)acetamido]-3-(6,7-dihydroxy-2-methyl-1,2,3,4-tetrahydro-2-isoquinolinium)methyl-3-cephem-4-carboxylate], the MIC in the test on E. coli CSH2 amounted to 0.025 µg/mL (≈ 0.0387 µM); with P. maltophilia IID 1275, 3.12 µg/mL (≈ 4.82 µM); in the test on S. aureus JS-1 it was 100 µg/mL (≈ 155 µM); in the test on C. freundii No. 7, 0.2 µg/mL (≈ 0.309 µM); in the test on E. coli W3630/Rms213 it was 0.025 µg/mL (≈ 0.0387 µM); with P. aeruginosa AK109, 0.025 µg/mL (≈ 0.0387 µM). Moreover, the MIC with P. aeruginosa AKR17 came to 0.05 µg/mL (≈ 0.0773 µM); in the test on E. coli C/Rms149, 0.0125 µg/mL (≈ 0.0193 µM); with S. aureus NIHJJC-1 (setting [1]), 12.5 µg/mL (≈ 19.3 µM); in the test with K. pneumoniae No. 42 it was 0.05 µg/mL (≈ 0.0773 µM); in the test on E. coli NIHJJC-2, 0.025 µg/mL (≈ 0.0387 µM); in the test with P. vulgaris OB1043, 0.05 µg/mL (≈ 0.0773 µM). The MIC with A. calcoaceticus No. 14 was 0.78 µg/mL (≈ 1.21 µM); in the test with P. mirabilis JY10 it was 0.1 µg/mL (≈ 0.155 µM); in the test on P. vulgaris No. 33 (setting [2]), 1 µg/mL (≈ 1.55 µM); in the test on S. marcescens No. 16-2 (setting [3]) it was 0.39 µg/mL (≈ 0.603 µM); in the test on P. cepacia 23, 0.025 µg/mL (≈ 0.0387 µM); in the test with E. coli CSH it was 0.05 µg/mL (≈ 0.0773 µM). Further, the MIC was 0.025 µg/mL (≈ 0.0387 µM) in the test on E. coli ML1410/Rte16, 0.025 µg/mL (≈ 0.0387 µM) in the test on E. coli W3630/Rms212 and less than 0.006 µg/mL in the test on E. cloaceae Nek 39.
`C[N+]1(CC2=C(C(=O)[O-])N3C(=O)C(NC(=O)C(=NOC4CCCC4)c4csc(N)n4)C3SC2)CCc2cc(O)c(O)cc2C1` (stereo not drawn) [Ex. 16-D, 7-[(Z)-2-(2-aminothiazol-4-yl)-2-cyclopentyloxyiminoacetamido]-3-(6,7-dihydroxy-2-methyl-1,2,3,4-tetrahydro-2-isoquinolinium)methyl-3-cephem-4-carboxylate]: the MIC amounted to 0.1 µg/mL (≈ 0.159 µM) in the test on E. coli CSH2; 12.5 µg/mL (≈ 19.9 µM) in the test on P. maltophilia IID 1275; 12.5 µg/mL (≈ 19.9 µM) in the test on S. aureus JS-1; 1.56 µg/mL (≈ 2.48 µM) in the test with C. freundii No. 7; 0.1 µg/mL (≈ 0.159 µM) with E. coli W3630/Rms213; 0.05 µg/mL (≈ 0.0795 µM) with P. aeruginosa AK109. In addition, the MIC came out at 0.2 µg/mL (≈ 0.318 µM) with P. aeruginosa AKR17; 0.025 µg/mL (≈ 0.0398 µM) in the test on E. coli C/Rms149; 1.56 µg/mL (≈ 2.48 µM) in the test with S. aureus NIHJJC-1 (NIHJJC1, read-out: Minimum Inhibitory Concentration); 0.1 µg/mL (≈ 0.159 µM) with K. pneumoniae No. 42; 0.1 µg/mL (≈ 0.159 µM) in the test on E. coli NIHJJC-2; 0.2 µg/mL (≈ 0.318 µM) in the test on P. vulgaris OB1043. The MIC in the test on A. calcoaceticus No. 14 was 1.56 µg/mL (≈ 2.48 µM); with P. mirabilis JY10, 0.2 µg/mL (≈ 0.318 µM); in the test on P. vulgaris No. 33 (setting [2]), 0.1 µg/mL (≈ 0.159 µM); with S. marcescens No. 16-2 (NO.162, read-out: Minimum Inhibitory Concentration), 1.56 µg/mL (≈ 2.48 µM); in the test with P. cepacia 23 it was 0.0125 µg/mL (≈ 0.0199 µM); in the test on E. coli CSH, 0.1 µg/mL (≈ 0.159 µM). Moreover, the MIC with E. coli ML1410/Rte16 came to 0.025 µg/mL (≈ 0.0398 µM); in the test on E. coli W3630/Rms212, 0.0125 µg/mL (≈ 0.0199 µM); with E. cloaceae Nek 39, 0.0125 µg/mL (≈ 0.0199 µM).
For `C[N+]1(CC2=C(C(=O)[O-])N3C(=O)C(NC(=O)C(=NOC4(C(=O)O)CC4)c4csc(N)n4)C3SC2)CCc2cc(O)c(O)cc2C1` (stereo not drawn) [Ex. 17-E, 7-[(Z)-2-(2-aminothiazol-4-yl)-2-(1-carboxy-1-cyclopropoxyimino)acetamido]-3-(6,7-dihydroxy-2-methyl-1,2,3,4-tetrahydro-2-isoquinolinium)methyl-3-cephem-4-carboxylate], the MIC with E. coli CSH2 is not above 0.05 µg/mL; in the test on P. maltophilia IID 1275, 1.56 µg/mL (≈ 2.42 µM); with S. aureus JS-1, more than 25 µg/mL; in the test with C. freundii No. 7 it was 1.56 µg/mL (≈ 2.42 µM); in the test with E. coli W3630/Rms213 it was not above 0.05 µg/mL; in the test on P. aeruginosa AK109, not above 0.05 µg/mL. Moreover, the MIC with P. aeruginosa AKR17 was 0.1 µg/mL (≈ 0.155 µM); with E. coli C/Rms149 it was not above 0.05 µg/mL; with S. aureus NIHJJC-1 (setting [1]), 12.5 µg/mL (≈ 19.4 µM); in the test on K. pneumoniae No. 42, not above 0.05 µg/mL; in the test with E. coli NIHJJC-2, not above 0.05 µg/mL; in the test with P. vulgaris OB1043 it was not above 0.05 µg/mL. Besides, the MIC in the test on A. calcoaceticus No. 14 was 0.1 µg/mL (≈ 0.155 µM); in the test with P. mirabilis JY10, not above 0.05 µg/mL; in the test on P. vulgaris No. 33 (NO.33, read-out: Minimum Inhibitory Concentration) it was not above 0.05 µg/mL; with S. marcescens No. 16-2 (setting [3]), 0.39 µg/mL (≈ 0.605 µM); with P. cepacia 23 it was not above 0.05 µg/mL; with E. coli CSH it was not above 0.05 µg/mL. Also, the MIC in the test on E. coli ML1410/Rte16, with E. coli W3630/Rms212 and in the test on E. cloaceae Nek 39 was not above 0.05 µg/mL each time.
